Reference: ChEMBL document CHEMBL1153902, “Investigations of SCIO-469-like compounds for the inhibition of p38 MAP kinase” (Bioorg Med Chem Lett, 2009)

Assay: Inhibition of p38 MAPK assessed as substrate phosphorylation at 10 uM by ELISA
Compound `O=C(c1cc2c(Br)cccc2[nH]1)N1CCN(Cc2ccc(F)cc2)CC1` has an inhibition of 34%.
`Cn1ccc2cc(NC(=O)N3CCN(Cc4ccc(F)cc4)CC3)ccc21` gave an inhibition of 28%.
With `CN(C)C(=O)C(=O)c1cn(C)c2ccc(NC(=O)N3CCN(Cc4ccc(F)cc4)CC3)cc12` the inhibition was 12%.
Compound `CC(C)(C)OC(=O)n1ccc2cc(CNC(=O)N3CCN(Cc4ccc(F)cc4)CC3)ccc21` has an inhibition of 8%.
With `CC(=O)c1c(C(=O)N2CCN(Cc3ccc(F)cc3)CC2)[nH]c2ccccc12` the inhibition was 24%.
Compound `O=C(c1cn2ccccc2n1)N1CCN(Cc2ccc(F)cc2)CC1` has an inhibition of 33%.
In the case of `O=C(c1ccco1)N1CCN(Cc2ccc(F)cc2)CC1`, the inhibition is reported as 35%.
In the case of `O=C(c1nc2ccccc2[nH]1)N1CCN(Cc2ccc(F)cc2)CC1`, the inhibition is reported as 24%.
In the case of `Cn1c(C(=O)N2CCN(Cc3ccc(F)cc3)CC2)nc2ccccc21`, the inhibition is reported as 32%.
For `Fc1ccc(CN2CCN(Cc3cc4ccccc4[nH]3)CC2)cc1`, the inhibition was 25%.
With `CC(=O)c1ccc2[nH]c(C(=O)N3CCN(Cc4ccc(F)cc4)CC3)cc2c1` the inhibition was 45%.
In the case of `O=C(c1ccco1)N1CCN(Cc2ccccc2)CC1`, the inhibition is reported as 20%.

Assay: Selectivity for p38alpha over p38beta
With `CN(C)C(=O)C(=O)c1cn(C)c2cc(Cl)c(C(=O)N3CCC(Cc4ccc(F)cc4)CC3)cc12` the fold change (FC) was 10.

Assay: Inhibition of p38 MAPK assessed as substrate phosphorylation by ELISA
Work on `Cn1c(C(=O)N2CCN(Cc3ccc(F)cc3)CC2)c(Br)c2ccccc21` yielded an IC50 of 2.24 µM.
`CC(=O)c1cccc2c(Cl)c(C(=O)N3CCN(Cc4ccc(F)cc4)CC3)[nH]c12` gave an IC50 of 2.46 µM.
`O=C(c1[nH]c2ccccc2c1Br)N1CCN(Cc2ccc(F)cc2)CC1` showed an IC50 of 6.46 µM.
For `CC(=O)c1ccc2[nH]c(C(=O)N3CCN(Cc4ccc(F)cc4)CC3)c(Cl)c2c1`, the IC50 was 6.51 µM.
Compound `O=C(c1cc2ccccc2o1)N1CCN(Cc2ccc(F)cc2)CC1` has an IC50 of 8.42 µM.
For `O=C(c1cc2ccccc2[nH]1)N1CCN(Cc2ccc(F)cc2)CC1`, the IC50 was 3.2 µM.
In the case of `O=C(c1[nH]c2ccccc2c1I)N1CCN(Cc2ccc(F)cc2)CC1`, the IC50 is reported as 7.47 µM.
`O=C(c1[nH]c2ccccc2c1Cl)N1CCN(Cc2ccc(F)cc2)CC1` showed an IC50 of 7.57 µM.
With `O=C(c1cc2ccccc2[nH]1)N1CCC(Cc2ccccc2)CC1` the IC50 was 1.09 µM.
For `O=C(c1cc2ccccc2[nH]1)N1CCN(Cc2ccccc2)CC1`, the IC50 was 5.77 µM.
Work on `Cn1c(C(=O)N2CCN(Cc3ccc(F)cc3)CC2)cc2ccccc21` yielded an IC50 of 1.36 µM.
In the case of `O=C(c1cc2ccccc2o1)N1CCC(Cc2ccccc2)CC1`, the IC50 is reported as 1.75 µM.
For `CC(=O)c1cccc2cc(C(=O)N3CCN(Cc4ccc(F)cc4)CC3)[nH]c12`, the IC50 was 3.61 µM.
